For the data set, the system named is VCaP cells. Put plainly: Cytotoxicity assessment (Cell-titer-glo cell viability), VCaP. The settings on record: read-out: VCaP (CC50); VCaP cells, 6 days of treatment, Cell-titer-glo, vs DMSO.

Where only a bound is given, the exact number is not on record here.

Description: In order to evaluate the androgen receptor (AR) cytotoxicity of the compounds according to the present invention, the following experiment was conducted. Specifically, 1.5×10^3 (LNCaP) or 4×10^3 (VCaP, 22RV1), respectively, of LNCaP, VCaP, and 22RV1 cells were injected into each well of a 96-well plate. The next day, each well was treated with the compound at a final concentration of 3 nM, 10 nM, 30 nM, 100 nM, 300 nM, 1 μM, 3 μM, and 10 μM. […] After 6 days of treatment, Cell-titer-glo (promega) was treated and reacted for 10 minutes, and cell viability was measured with a multimode plate reader (PerkinElmer, Inc.), and the change was quantified compared to when DMSO was treated.

On to `CC1(C)C(NC(=O)c2ccc(C#CC3CCN(C(=O)C4CCN(c5ccc6nnn(C7CCC(=O)NC7=O)c(=O)c6c5)CC4)CC3)cc2)C(C)(C)C1Oc1ccc(C#N)c(Cl)c1` (centres unmarked) [Example 141, N-((1r,3r)-3-(3-chloro-4-cyanophenoxy)-2,2,4,4-tetramethylcyclobutyl)-4-((1-(1-(3-(2,6-dioxopiperidin-3-yl)-4-oxo-3,4-dihydrobenzo[d][1,2,3]triazin-6-yl)piperidine-4-carbonyl)piperidin-4-yl)ethynyl)benzamide], for which the CC50 amounted to 11.5 nM.

Consider `CC1(C)C(NC(=O)c2ccc(C#CCC3CCN(C4CCN(c5ccc6nnn(C7CCC(=O)NC7=O)c(=O)c6c5)CC4)CC3)cc2)C(C)(C)C1Oc1ccc(C#N)c(Cl)c1` (centres unmarked) [Example 89, N-((1r,3r)-3-(3-chloro-4-cyanophenoxy)-2,2,4,4-tetramethylcyclobutyl)-4-(3-(1 ? (3-(2,6-dioxopiperidin-3-yl)-4-oxo-3,4-dihydrobenzo[d][1,2,3]triazin-6-yl)-[1,4 ? bipiperdin]-4-yl)prop-1-yn-1-yl)benzamide], for which the half-maximal cytotoxic concentration (CC50) came to 112 nM.

Regarding `CC1(C)[C@H](NC(=O)c2ccc(CCN3CC4CN(c5ccc6nnn(C7CCC(=O)NC7=O)c(=O)c6c5)CC4C3)cc2)C(C)(C)[C@H]1Oc1ccc(C#N)c(Cl)c1` (some centres unmarked) [Example 92, N-((1r,3r)-3-(3-chloro-4-cyanophenoxy)-2,2,4,4-tetramethylcyclobutyl)-4-(2-(5-(3-(2,6-dioxopiperidin-3-yl)-4-oxo-3,4-dihydrobenzo[d][1,2,3]triazin-6-yl)hexahydropyrrolo[3,4-c]pyrrol-2(1H)-yl)ethyl)benzamide], the CC50 is over 10000 nM.

Take `CC1(C)C(NC(=O)c2ccc(-n3cc(CCNC(=O)C4CCN(c5ccc6nnn(C7CCC(=O)NC7=O)c(=O)c6c5)CC4)nn3)cc2)C(C)(C)C1Oc1ccc(C#N)c(Cl)c1` (centres unmarked) [Example 154, N-(2-(1-(4-(((1r,3r)-3-(3-chloro-4-cyanophenoxy)-2,2,4,4-tetramethylcyclobutyl)carbamoyl)phenyl)-1H-1,2,3-triazol-4-yl)ethyl)-1-(3-(2,6-dioxopiperidin-3-yl)-4-oxo-3,4-dihydrobenzo[d][1,2,3]triazin-6-yl)piperidine-4-carboxamide]: the CC50 was 41.6 nM.

Consider `CC1(C)C(NC(=O)c2ccc(C#CC3CCN(CC4CCN(C(=O)COc5ccc6nnn(C7CCC(=O)NC7=O)c(=O)c6c5)CC4)CC3)nc2)C(C)(C)C1Oc1ccc(C#N)c(Cl)c1` (centres unmarked) [Example 133, N-((1r,3r)-3-(3-chloro-4-cyanophenoxy)-2,2,4,4-tetramethylcyclobutyl)-6-((1-((1-(2-((3-(2,6-dioxopiperidin-3-yl)-4-oxo-3,4-dihydrobenzo[d][1,2,3]triazin-6-yl)oxy)acetyl)piperidin-4-yl)methyl)piperidin-4-yl)ethynyl)nicotinamide], for which the CC50 was 15 nM.

On to `CC1(C)C(NC(=O)c2ccc(N3CCN(CC4CCN(CCNC(=O)CNc5ccc6nnn(C7CCC(=O)NC7=O)c(=O)c6c5)CC4)CC3)cc2)C(C)(C)C1Oc1ccc(C#N)c(Cl)c1` (centres unmarked) [Example 59, N-((1r,3r)-3-(3-chloro-4-cyanophenoxy)-2,2,4,4-tetramethylcyclobutyl)-4-(4-((1-(2-(2-((3-(2,6-dioxopiperidin-3-yl)-4-oxo-3,4-dihydrobenzo[d][1,2,3]triazin-6-yl)amino)acetamido)ethyl)piperidin-4-yl)methyl)piperazin-1-yl)benzamide], for which the CC50 was about 1000 nM.

For `CC1(C)[C@H](NC(=O)c2ccc(-n3cc(CN4CCN(C(=O)CNc5ccc6nnn(C7CCC(=O)NC7=O)c(=O)c6c5)CC4)nn3)cc2)C(C)(C)[C@H]1Oc1ccc(C#N)c(Cl)c1` (some centres unmarked) [Example 123, N-((1r,3r)-3-(3-chloro-4-cyanophenoxy)-2,2,4,4-tetramethylcyclobutyl)-4-(4-((4-((3-(2,6-dioxopiperidin-3-yl)-4-oxo-3,4-dihydrobenzo[d][1,2,3]triazin-6-yl)glycyl)piperazin-1-yl)methyl)-1H-1,2,3-triazol-1-yl)benzamide], the CC50 stood at 55 nM.

As to `CC1(C)C(NC(=O)c2ccc(N3CC4CN(C(=O)CNc5ccc6nnn(C7CCC(=O)NC7=O)c(=O)c6c5)CC4C3)cc2)C(C)(C)C1Oc1ccc(C#N)c(Cl)c1` (centres unmarked) [Example 136, N-((1r,3r)-3-(3-chloro-4-cyanophenoxy)-2,2,4,4-tetramethylcyclobutyl)-4-(5-((3-(2,6-dioxopiperidin-3-yl)-4-oxo-3,4-dihydrobenzo[d][1,2,3]triazin-6-yl)glycyl)hexahydropyrrolo[3,4-c]pyrrol-2(1H)-yl)benzamide], the CC50 came out at 67.7 nM.

Take `CC1(C)C(NC(=O)c2ccc(-n3cc(CNC(=O)C4CN(c5ccc6nnn(C7CCC(=O)NC7=O)c(=O)c6c5)C4)nn3)cc2)C(C)(C)C1Oc1ccc(C#N)c(Cl)c1` (centres unmarked) [Example 151, N-((1-(4-(((1r,3r)-3-(3-chloro-4-cyanophenoxy)-2,2,4,4-tetramethylcyclobutyl)carbamoyl)phenyl)-1H-1,2,3-triazol-4-yl)methyl)-1-(3-(2,6-dioxopiperidin-3-yl)-4-oxo-3,4-dihydrobenzo[d][1,2,3]triazin-6-yl)azetidine-3-carboxamide]: the CC50 was determined as 25.6 nM.

For the molecule `CC1(C)C(NC(=O)c2ccc(C#CCC3CCN(CC4CCN(C(=O)C5CCN(c6ccc7nnn(C8CCC(=O)NC8=O)c(=O)c7c6)CC5)CC4)CC3)cc2)C(C)(C)C1Oc1ccc(C#N)c(Cl)c1` (centres unmarked) [Example 116, N-((1r,3r)-3-(3-chloro-4-cyanophenoxy)-2,2,4,4-tetramethylcyclobutyl)-4-(3-(1-((1-(1-(3-(2,6-dioxopiperidin-3-yl)-4-oxo-3,4-dihydrobenzo[d][1,2,3]triazin-6-yl)piperidine-4-carbonyl)piperidin-4-yl)methyl)piperidin-4-yl)prop-1-yn-1-yl)benzamide], the CC50 stood at 16.1 nM.

With `CC1(C)C(NC(=O)c2ccc(-c3cnn(C4CCN(CC5CCN(C(=O)C6CCN(c7ccc8nnn(C9CCC(=O)NC9=O)c(=O)c8c7)CC6)CC5)CC4)c3)nc2)C(C)(C)C1Oc1ccc(C#N)c(Cl)c1` (centres unmarked) [Example 124, N-((1r,3r)-3-(3-chloro-4-cyanophenoxy)-2,2,4,4-tetramethylcyclobutyl)-6-(1-(1-((1-(1-(3-(2,6-dioxopiperidin-3-yl)-4-oxo-3,4-dihydrobenzo[d][1,2,3]triazin-6-yl)piperidine-4-carbonyl)piperidin-4-yl)methyl)piperidin-4-yl)-1H-pyrazol-4-yl)nicotinamide], the CC50 was found to be 13 nM.

As to `CC1(C)C(NC(=O)c2ccc(C#CCC3CCN(CC4CCN(C(=O)CNc5ccc6nnn(C7CCC(=O)NC7=O)c(=O)c6c5)CC4)CC3)cc2)C(C)(C)C1Oc1ccc(C#N)c(Cl)c1` (centres unmarked) [Example 118, N-((1r,3r)-3-(3-chloro-4-cyanophenoxy)-2,2,4,4-tetramethylcyclobutyl)-4-(3-(1-((1-((3-(2,6-dioxopiperidin-3-yl)-4-oxo-3,4-dihydrobenzo[d][1,2,3]triazin-6-yl)glycyl)piperidin-4-yl)methyl)piperidin-4-yl)prop-1-yn-1-yl)benzamide], the CC50 was 17 nM.

On to `CC1(C)C(NC(=O)c2ccc(CCN3CCN(CC4CCN(C(=O)C5CN(c6ccc7nnn(C8CCC(=O)NC8=O)c(=O)c7c6)C5)CC4)CC3)cc2)C(C)(C)C1Oc1ccc(C#N)c(Cl)c1` (centres unmarked) [Example 109, N-((1r,3r)-3-(3-chloro-4-cyanophenoxy)-2,2,4,4-tetramethylcyclobutyl)-4-(2-(4-((1-(1-(3-(2,6-dioxopiperidin-3-yl)-4-oxo-3,4-dihydrobenzo[d][1,2,3]triazin-6-yl)azetidine-3-carbonyl)piperidin-4-yl)methyl)piperazin-1-yl)ethyl)benzamide], for which the CC50 was 13 nM.

In the case of `CC1(C)C(NC(=O)c2ccc(N3CC4CN(CC5CCN(C(=O)COc6ccc7nnn(C8CCC(=O)NC8=O)c(=O)c7c6)CC5)CC4C3)cc2)C(C)(C)C1Oc1ccc(C#N)c(Cl)c1` (centres unmarked) [Example 137, N-((1r,3r)-3-(3-chloro-4-cyanophenoxy)-2,2,4,4-tetramethylcyclobutyl)-4-(5-((1-(2-((3-(2,6-dioxopiperidin-3-yl)-4-oxo-3,4-dihydrobenzo[d][1,2,3]triazin-6-yl)oxy)acetyl)piperidin-4-yl)methyl)hexahydropyrrolo[3,4-c]pyrrol-2(1H)-yl)benzamide], the CC50 is 94 nM.

On to `CC1(C)C(NC(=O)c2ccc(C#CCC3CCN(CC4CCN(C(=O)C5CCN(c6ccc7nnn(C8CCC(=O)NC8=O)c(=O)c7c6)CC5)CC4)CC3)nc2)C(C)(C)C1Oc1ccc(C#N)c(Cl)c1` (centres unmarked) [Example 126, N-((1r,3r)-3-(3-chloro-4-cyanophenoxy)-2,2,4,4-tetramethylcyclobutyl)-6-(3-(1-((1-(1-(3-(2,6-dioxopiperidin-3-yl)-4-oxo-3,4-dihydrobenzo[d][1,2,3]triazin-6-yl)piperidine-4-carbonyl)piperidin-4-yl)methyl)piperidin-4-yl)prop-1-yn-1-yl)nicotinamide], for which the CC50 came to 40 nM.

Regarding `CC1(C)C(NC(=O)c2ccc(C#CC3CCN(CC4CCN(C(=O)CNc5ccc6nnn(C7CCC(=O)NC7=O)c(=O)c6c5)CC4)CC3)nc2)C(C)(C)C1Oc1ccc(C#N)c(Cl)c1` (centres unmarked) [Example 132, N-((1r,3r)-3-(3-chloro-4-cyanophenoxy)-2,2,4,4-tetramethylcyclobutyl)-6-((1-((1-((3-(2,6-dioxopiperidin-3-yl)-4-oxo-3,4-dihydrobenzo[d][1,2,3]triazin-6-yl)glycyl)piperidin-4-yl)methyl)piperidin-4-yl)ethynyl)nicotinamide], the CC50 was determined as 15 nM.

As to `CC1(C)C(NC(=O)c2ccc(-n3cc(CCOCCOCCNC(=O)C4CCN(c5ccc6nnn(C7CCC(=O)NC7=O)c(=O)c6c5)CC4)nn3)cc2)C(C)(C)C1Oc1ccc(C#N)c(Cl)c1` (centres unmarked) [Example 158, N-(2-(2-(2-(1-(4-(((1r,3r)-3-(3-chloro-4-cyanophenoxy)-2,2,4,4-tetramethylcyclobutyl)carbamoyl)phenyl)-1H-1,2,3-triazol-4-yl)ethoxy)ethoxy)ethyl)-1-(3-(2,6-dioxopiperidin-3-yl)-4-oxo-3,4-dihydrobenzo[d][1,2,3]triazin-6-yl)piperidine-4-carboxamide], the CC50 amounted to 38.8 nM.
